Target: T1, Calpain-1 catalytic subunit (Homo sapiens, UniProt P07384)
T1 sequence (P07384 whole entry): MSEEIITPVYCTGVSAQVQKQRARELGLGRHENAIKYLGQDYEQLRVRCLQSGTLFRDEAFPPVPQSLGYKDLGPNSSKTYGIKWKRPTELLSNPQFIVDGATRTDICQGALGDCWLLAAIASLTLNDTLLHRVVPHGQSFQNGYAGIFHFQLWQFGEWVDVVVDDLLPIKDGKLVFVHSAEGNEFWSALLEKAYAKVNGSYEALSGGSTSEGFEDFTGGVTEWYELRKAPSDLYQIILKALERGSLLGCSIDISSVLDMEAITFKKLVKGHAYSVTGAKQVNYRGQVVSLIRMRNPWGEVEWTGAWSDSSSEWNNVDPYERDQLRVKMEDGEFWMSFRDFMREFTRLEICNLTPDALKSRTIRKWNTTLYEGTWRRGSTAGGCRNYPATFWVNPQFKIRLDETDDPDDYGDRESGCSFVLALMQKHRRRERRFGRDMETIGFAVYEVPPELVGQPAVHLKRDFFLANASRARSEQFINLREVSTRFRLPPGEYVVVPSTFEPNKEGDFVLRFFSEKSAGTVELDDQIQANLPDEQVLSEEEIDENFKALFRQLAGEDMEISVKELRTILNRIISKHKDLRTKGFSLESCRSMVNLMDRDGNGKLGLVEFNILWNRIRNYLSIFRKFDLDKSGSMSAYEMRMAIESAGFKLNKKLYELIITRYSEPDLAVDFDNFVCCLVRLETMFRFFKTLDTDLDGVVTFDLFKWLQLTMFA
Assay: Inhibitory activity against calpain

IC50: 1400 nM
SMILES: NC(=O)CCc1cc[nH]c1
